From patent US20230116602A1, “MCL1 INHIBITORS AND USES THEREOF” (California Institute of Technology, priority 2019, published 2023) come the findings set out here.

The term IC50 denotes the concentration that gives 50% inhibition. Broadly, the Kd is the constant that tells how readily two partners part at equilibrium.

Some results are limits rather than exact numbers.

Assay [1] relates to drug-resistant cell lines of Table 3. Nature of the assay: Cell line growth retardation assay, resistant cohort. The class given is cell-based, Human. The settings on record: Homo sapiens, 144 h; arithmetic mean of IC50s over the resistant cohort of Table 3, 6 days growth; read-out: AvgRes IC50. On the procedure: (§1) Cells were seeded at densities of 1,000-5,000 cells per well in 48-well tissue culture plates. After a 24 h rest period, cells were treated with compound at 10 μM, 1 μM, […], 0.08 μM, 0.016 μM, and 0.0032 μM. A group of cells were treated with the vehicle in which the compound was prepared and served as a control. Prior to treatment, cells were counted and this count was used as a baseline for the calculation of growth inhibition. The cells were grown in the presence of compounds for 6 days and were counted on day 6. All cell counting was performed using a Synentec Cellavista plate imager. Growth inhibition was calculated as a ratio of cell population doublings in the presence of compound versus the absence of compound. […] IC50 values for each compound were calculated by fitting curves to data points from each dose-response assay using the Proc NLIN function in SAS for Windows version 9.2 (SAS Institute, Inc.).
(§2) Human cancer cell lines were grouped as “sensitive” or “resistant” to MCL1 inhibition based on whether their growth was retarded by AMG-176 (i.e., (1′S,11R,12S,14E,16S,16aR,18aR)-6′-Chloro-3′,4′,12,13,16,16a,17,18,18a,19-decahydro-16-methoxy-11,12-dimethyl-,Spiro[5,7-etheno-1H,11H-cyclobut[i][1,4]oxazepino[3,4-f][1,2,7]thiadiazacyclohexadecine-2(3H),1′(2′H)-naphthalen]-8(9H)-one 10,10-dioxide) or MIK665 (i.e., (R)-2-((5-(3-chloro-2-methyl-4-(2-(4-methylpiperazin-1-yl)ethoxy)phenyl)-6-(4-fluorophenyl)thieno[2,3-d]pyrimidin-4-yl)oxy)-3-(2-((2-(2-methoxyphenyl)pyrimidin-4-yl)methoxy)phenyl)propanoic acid) (data not shown; see Table 3). These sensitive and resistant cohorts were interrogated for response to each compound, and IC50S were calculated for each cell line using the same technique described above. Average IC50S for the sensitive (“AvgSen IC50”) and resistant (“AvgRes IC50”) cohorts were calculated as arithmetic means of the group, and fold differences (“Fold Diff”) between the resistant and sensitive cohorts were calculated by diving the average IC50 for the resistant cohort by the average IC50 for the sensitive cohort. “A” represents an IC50 of 1 μM or less, “B” represents an IC50 of greater than 1 μM to 5 μM, “C” represents an IC50 of greater than 5 μM, “+” represents a fold difference of 10 or more, and “−” represents a fold difference less than 10.

The target in a further assay is MCL1 (Homo sapiens, UniProt Q07820). As to the kind of experiment: MCL1 affinity assay (competition binding, qPCR readout). The settings on record: recombinant MCL1, 11-point 3-fold dilution series. As for the experimental part:
Recombinant MCL1, BCL2 and BCXL proteins were prepared in either an E. coli host derived from the BL21 strain or in HEK-293 cells. The recombinant proteins were subsequently tagged with DNA for qPCR detection. Streptavidin-coated magnetic beads were treated for 30 minutes at room temperature with the respective biotinylated peptide ligands for each recombinant protein to generate affinity resins for the assays. The liganded beads were blocked with excess biotin and washed with blocking buffer (SeaBlock (Pierce), 1% BSA, 0.05% Tween 20, 1 mM DTT) to remove unbound ligand and to reduce nonspecific binding. Binding reactions were assembled by combining recombinant protein, liganded affinity beads, and test compounds in 1× binding buffer (20% SeaBlock, 0.17×PBS, 0.05% Tween 20, 6 mM DTT). Test compounds were prepared as 111X stocks in 100% DMSO. The compounds were then diluted directly into the assays such that the final concentration of DMSO was 0.9%. The assay plates were incubated at room temperature with shaking for 1 hour and the affinity beads were washed with wash buffer (1×PBS, 0.05% Tween 20). The beads were then re-suspended in elution buffer (1×PBS, 0.05% Tween 20, 0.5 μM non-biotinylated affinity ligand) and incubated at room temperature with shaking for 30 minutes. The recombinant protein concentration in the eluates was measured by qPCR. Kds were determined using an 11-point 3-fold compound dilution series with three DMSO control points.
On the technique in general: In qPCR the cycle at which signal appears reflects the starting amount.

The subject of assay [2] is drug-sensitive cell lines of Table 3. Nature of the assay: Cell line growth retardation assay, sensitive cohort. In kind it is cell-based, Human. The settings on record: for IC50: Homo sapiens, 144 h, arithmetic mean of IC50s over the sensitive cohort of Table 3, 6 days growth, read-out: AvgSen IC50; for Fold Diff: average IC50 of resistant cohort divided by average IC50 of sensitive cohort. On the procedure:
as §1, §2

Sequence of MCL1 (Q07820 whole entry): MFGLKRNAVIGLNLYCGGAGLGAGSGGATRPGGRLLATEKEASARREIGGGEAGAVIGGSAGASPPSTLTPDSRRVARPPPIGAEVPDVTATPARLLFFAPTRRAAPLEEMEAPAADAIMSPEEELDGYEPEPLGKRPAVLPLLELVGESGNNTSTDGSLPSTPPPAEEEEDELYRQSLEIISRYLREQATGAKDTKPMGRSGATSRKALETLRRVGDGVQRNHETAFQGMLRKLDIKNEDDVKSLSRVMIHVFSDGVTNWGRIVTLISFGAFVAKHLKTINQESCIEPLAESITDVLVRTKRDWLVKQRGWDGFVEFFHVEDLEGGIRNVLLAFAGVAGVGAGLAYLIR

As to `COc1ccccc1-c1nccc(COc2ccccc2C[C@@H](Oc2nsc3cnc(-c4cccc(F)c4)c(-c4ccc(OCCN(C)C)c(Cl)c4C)c23)C(=O)O)n1` (atropisomer, axis not shown) [Compound 55], the IC50 in assay [1] was above 5 µM; in assay [2] it was at most 1 µM. On MCL1, the Kd was at most 0.1 µM. For the same molecule, the “Fold Diff” value in assay [2] is reported as “+ (“+” represents a fold difference of 10 or more)”.

On to `COc1ccccc1-c1nccc(COc2ccccc2C[C@@H](Oc2nsc3cnc(-c4ccc(F)c(Cl)c4)c(-c4ccc(OCCN5CCN(C)CC5)c(Cl)c4C)c23)C(=O)O)n1` (atropisomer, axis not shown) [Compound 88], for which the IC50 in assay [1] was above 5 µM. Further, the Kd at MCL1 is at most 0.1 µM. In assay [2], the IC50 was at most 1 µM and the “Fold Diff” value is “+ (“+” represents a fold difference of 10 or more)”.

For the molecule `COc1cccc(-c2ncc3snc(O[C@H](Cc4ccccc4OCc4ccnc(N5CCC(OC(F)F)CC5)n4)C(=O)O)c3c2-c2ccc(OCCN3CCN(C)CC3)c(Cl)c2C)c1` (atropisomer, axis not shown) [Compound 63], the values for the IC50 in assay [1] and in assay [2] were above 5 µM and 1 to 5 µM, respectively. In addition, the Kd at MCL1 is 0.501 to 1.5 µM. Also, in assay [2], the “Fold Diff” value was “− (“−” represents a fold difference less than 10)”.

Regarding `Cc1c(-c2cc(-n3c(C)c(Cl)c4cc(Cl)cnc43)cc3snc(O[C@H](Cc4ccccc4OCc4ccnn4CC(F)(F)F)C(=O)O)c23)ccc(OCCN2CCN(C)CC2)c1Cl` [Compound 100], the IC50 in assay [1] was above 5 µM. For the same molecule, on MCL1, the Kd was in the range of 0.501 to 1.5 µM. Moreover, in assay [2], the IC50 lay in the range of 1 to 5 µM and the “Fold Diff” value is on record as “− (“−” represents a fold difference less than 10)”.

In the case of `COc1cccc(-c2ncc3snc(O[C@H](Cc4ccccc4OCc4ccnc(-c5ccccc5OC(F)F)n4)C(=O)O)c3c2-c2ccc(OCCN3CCN(C)CC3)c(Cl)c2C)c1` (atropisomer, axis not shown) [Compound 66], the IC50 in assay [1] was above 5 µM; in assay [2], at most 1 µM. Also, the Kd on MCL1 is at most 0.1 µM. Also, the “Fold Diff” value in assay [2] is “+ (“+” represents a fold difference of 10 or more)”.

In the case of `COc1cccc(-c2ncc3snc(O[C@H](Cc4ccccc4OCc4ccnc(N5CCCC(F)(F)C5)n4)C(=O)O)c3c2-c2ccc(OCCN3CCN(C)CC3)c(Cl)c2C)c1` (atropisomer, axis not shown) [Compound 61], the IC50 in assay [1] was above 5 µM. Further, the Kd at MCL1 fell in the range of 0.101 to 0.5 µM. Moreover, in assay [2], the half-maximal inhibitory concentration (IC50) is at most 1 µM and the “Fold Diff” value was “+ (“+” represents a fold difference of 10 or more)”.

For `CCn1ccc(-c2ncc3snc(O[C@H](Cc4ccccc4OCc4ccnc(-c5ccccc5OC)n4)C(=O)O)c3c2-c2ccc(OCCN3CCN(C)CC3)c(Cl)c2C)n1` (atropisomer, axis not shown) [Compound 76], the IC50 in assay [1] is above 5 µM. The Kd at MCL1 lay in the range of 0.501 to 1.5 µM. Moreover, in assay [2], the IC50 was above 5 µM and the “Fold Diff” value is “− (“−” represents a fold difference less than 10)”.

Regarding `Cc1c(-c2c(C3CCC3)ncc3snc(O[C@H](Cc4ccccc4OCc4ccnc(-c5cccc(S(C)(=O)=O)c5)n4)C(=O)O)c23)ccc(OCCN2CCN(C)CC2)c1Cl` (atropisomer, axis not shown) [Compound 118], the values for the IC50 in assay [1] and in assay [2] were above 5 µM and 1 to 5 µM, respectively. Besides, the Kd on MCL1 was at most 0.1 µM. Besides, the “Fold Diff” value in assay [2] is reported as “− (“−” represents a fold difference less than 10)”.

As to `CCOc1cccc(-c2ncc3snc(O[C@H](Cc4ccccc4OCc4ccnc(-c5ccccc5OC)n4)C(=O)O)c3c2-c2ccc(OCCN3CCN(C)CC3)c(Cl)c2C)c1` (atropisomer, axis not shown) [Compound 87], the IC50 in assay [1] was above 5 µM. At MCL1, the Kd was at most 0.1 µM. Also, in assay [2], the IC50 was at most 1 µM and the “Fold Diff” value is “+ (“+” represents a fold difference of 10 or more)”.

Consider `Cc1c(-c2cc(-n3c(=O)n(C)c4cc(Cl)ccc43)cc3snc(O[C@H](Cc4ccccc4OCc4ccnn4CC(F)(F)F)C(=O)O)c23)ccc(OCCN2CCN(C)CC2)c1Cl` [Compound 99], for which the IC50 in assay [1] is above 5 µM. Moreover, the Kd at MCL1 was above 1.5 µM. In assay [2], the IC50 was above 5 µM and the “Fold Diff” value is on record as “− (“−” represents a fold difference less than 10)”.

With `COc1ccccc1-c1nccc(COc2ccccc2C[C@@H](Oc2nsc3cnc(-c4ccc(F)cc4C)c(-c4ccc(OCCN5CCN(C)CC5)c(Cl)c4C)c23)C(=O)O)n1` (atropisomer, axis not shown) [Compound 86], the IC50 in assay [1] is above 5 µM. For the same molecule, the Kd on MCL1 lay in the range of 0.501 to 1.5 µM. Further, in assay [2], the IC50 fell in the range of 1 to 5 µM and the “Fold Diff” value was “− (“−” represents a fold difference less than 10)”.

In the case of `COc1ccc(F)cc1-c1nccc(COc2ccccc2C[C@@H](Oc2nsc3cnc(C4CCC4)c(-c4ccc(OCCN5CCN(C)CC5)c(Cl)c4C)c23)C(=O)O)n1` (atropisomer, axis not shown) [Compound 73], the IC50 in assay [1] was above 5 µM. For the same molecule, at MCL1, the Kd was at most 0.1 µM. In assay [2], the IC50 is at most 1 µM and the “Fold Diff” value is recorded as “+ (“+” represents a fold difference of 10 or more)”.

Take `COc1ccccc1-c1nccc(COc2ccccc2C[C@@H](Oc2nsc3cnc(-c4cccc(F)c4)c(-c4ccc(OCCN5CCN(C)CC5)c(Cl)c4C)c23)C(=O)O)n1` (atropisomer, axis not shown) [Compound 35]: the IC50 in assay [1] is above 5 µM. In addition, the Kd at MCL1 is at most 0.1 µM. For the same molecule, in assay [2], the IC50 is at most 1 µM and the “Fold Diff” value is listed as “+ (“+” represents a fold difference of 10 or more)”.

Consider `Cc1c(-c2c(C3CCC3)ncc3snc(O[C@H](Cc4ccccc4OCc4ccnc(-c5cccc(N6CCOCC6)c5)n4)C(=O)O)c23)ccc(OCCN2CCN(C)CC2)c1Cl` (atropisomer, axis not shown) [Compound 112], for which the IC50 in assay [1] was above 5 µM. Moreover, the Kd at MCL1 is at most 0.1 µM. Moreover, in assay [2], the IC50 was at most 1 µM and the “Fold Diff” value is on record as “+ (“+” represents a fold difference of 10 or more)”.

For `Cc1c(-c2cc(-c3nn(C)c4cc(Cl)ccc34)cc3snc(O[C@H](Cc4ccccc4OCc4ccnn4CC(F)(F)F)C(=O)O)c23)ccc(OCCN2CCN(C)CC2)c1Cl` [Compound 94], the IC50 in assay [1] was above 5 µM. In addition, on MCL1, the Kd is above 1.5 µM. Besides, in assay [2], the IC50 was above 5 µM and the “Fold Diff” value is “− (“−” represents a fold difference less than 10)”.

Consider `COc1ccccc1-c1nccc(COc2ccccc2C[C@@H](Oc2nsc3cnc(C4CCC4)c(-c4ccc(OCCN5CCOCC5)c(Cl)c4C)c23)C(=O)O)n1` (atropisomer, axis not shown) [Compound 108], for which the IC50 in assay [1] was above 5 µM. Besides, the Kd on MCL1 was at most 0.1 µM. Further, in assay [2], the IC50 was 1 to 5 µM and the “Fold Diff” value is on record as “− (“−” represents a fold difference less than 10)”.

As to `COCc1ccccc1-c1nccc(COc2ccccc2C[C@@H](Oc2nsc3cnc(-c4cccc(OC)c4)c(-c4ccc(OCCN5CCN(C)CC5)c(Cl)c4C)c23)C(=O)O)n1` (atropisomer, axis not shown) [Compound 65], the IC50 in assay [1] was above 5 µM. The Kd at MCL1 was at most 0.1 µM. Besides, in assay [2], the IC50 was at most 1 µM and the “Fold Diff” value was “+ (“+” represents a fold difference of 10 or more)”.
